{"source": "paper PMC9456463", "about": "“Intelligent Drug Delivery by Peptide-Based Dual-Function Micelles” (International Journal of Molecular Sciences, 2022)", "tested_on": "4T1 mouse breast cancer cell xenografted model", "assay": "In vivo antitumor efficacy, 4T1 mouse breast cancer xenografted model", "conditions": "BALB/c female mice, 4T1 tumor", "procedure": "All animal experiments were performed complying with the guidelines for the care and use of laboratory animals of the Peking University Animal Study Committee’s requirements. Experimental procedures were carried out by a protocol approved for institutional animal care. A total of 24 BALB/c female mice (5–6 weeks) were used in this study. The PBS suspension containing 2.5 × 10^4 4T1 cells was injected subcutaneously into female BALB/c mice. […] The body weight and tumor volume of each mouse were measured at regular intervals to evaluate the antitumor effects and toxicity of different drugs. […] One mouse from each group was randomly selected, and its major organs and tumor tissues were collected, then Hematoxylin and Eosin (H&E) staining were utilized to evaluate the degree of apoptosis in mice."}
{"compound": "COc1cccc2c1C(=O)c1c(O)c3c(c(O)c1C2=O)C[C@@](O)(C(=O)CO)C[C@@H]3O[C@H]1C[C@H](N)[C@H](O)[C@H](C)O1", "note": "[DOX, Doxorubicin]", "values": [{"measurement": "body weight change during treatment", "setting": "tail vein injection", "value": "decreased significantly"}, {"measurement": "final tumor weight", "setting": "tail vein injection on days 0, 4, 8, 12", "value": 0.47, "unit": "g"}, {"measurement": "tumor volume increase after 14 days", "setting": "tail vein injection on days 0, 4, 8, 12, group sacrificed on the 14th day", "value": 11.03, "unit": "fold"}, {"measurement": "final tumor weight", "setting": "tail vein injection on days 0, 4, 8, 12, listed as free DOX", "value": 0.67, "unit": "g"}]}
